Experimental data taken from US20250041387A1, “POLYPEPTIDE SEQUENCE OF KDM6B AND APPLICATION OF KDM6B IN REGULATING AND CONTROLLING FUNCTION OF MESENCHYMAL STEM CELL” (BEIJING STOMATOLOGICAL HOSPITAL, CAPITAL MEDICAL UNIVERSITY, priority 2021, published 2025).
Several values for one entry are separate records, joined by “and”; a condition that tells them apart may be missing. Equal values may be shown once.

Assays:
[1] = tested on: OVX mouse of osteoporosis model; assay: OVX mouse osteoporosis model, micro-CT of distal femur; format: in vivo, C57BL/6 mice; settings: OVX mice, 10 mg/kg intraperitoneally for 3 months from 6 weeks after ovary removal, individual mice, FIG. 19B, listed as 114 peptide
Excerpt: Twenty five 3-month-old C57BL/6 mice were purchased from Vital River and randomly divided into sham operation group, OVX group, PBS group, control peptide group and 114 peptide group, with five mice in each group. The osteoporosis model was established by removing bilateral ovaries in OVX, PBS, control peptide and 114 peptide groups. In the sham operation group, ovaries were not removed. 6 weeks after ovary removal, the mice were intraperitoneally injected with control peptide and peptide 114 at 10 mg/kg for continuous 3 months, and then sacrificed. For the distal femur, the left distal femur of each mouse was scanned ex vivo using a micro-CT system. Each segment of bone trabeculae was selected for segmentation, and subjected to 3D reconstruction. BMD was calculated.

[2] = tested on: telomerase reverse transcriptase; assay: ELISA assay of telomerase reverse transcriptase in BMSCs; format: cell-based, human; settings: FIG. 4A
Procedure: (§1) • (1) Pre-detection preparation: A standard curve was calculated and plotted using a standard concentration gradient of 400 ng/mL, 200 ng/ml, 100 ng/ml, 50 ng/mL, 25 ng/ml, 12.5 ng/mL, 6.25 ng/mL, and 0 ng/mL. • (2) 100 μL of the standards and samples were added to each well of a 96-well plate. The plate was covered with a provided sealing film, and incubated at 37° C. for 2 hours. The name of the sample was noted on the surface of the sealing film. • (3) The sample in each well was discarded and spin-dried without washing. • (4) 100 μL of Biotin-antibody (1×) was added to each well. The plate was covered with a sealing film, and incubated at […] for 1 hour. If Biotin-antibody (1×) appeared cloudy, Biotin-antibody was warmed to room temperature and stirred gently until clear. • (5) The sample in each well was discarded. Each well was added with 200 μL of Wash Buffer using a multichannel pipette and left to stand for 2 minutes for washing. This process was repeated twice for a total of three times of washing. Complete removal of liquid at each step was critical for good performance. After the last time of washing, the Wash Buffer was discarded, and the 96-well plate was turned upside down and dried with a clean paper. • (6) 100 μL of HRP-avidin (1×) was added to each well. The 96-well microtiter plate was covered with a new sealing film and incubated at 37° C. for 1 hour. • (7) The process of discarding samples and washing in […] was repeated 5 times. • (8) 90 μL of TMB Substrate was added to each well. The plate was incubated in the dark at 37° C. for 15-30 minutes. 50 μL of Stop Solution was added to each well, and the plate was gently taped to mix solution evenly. • (9) The optical density of each well was detected at 450 nm within 5 min using a microtiter plate reader.

[3] = tested on: defected dorsal skin of mice; assay: Dorsal full-thickness skin defect in mice; format: in vivo, Balb/c mice; parameters: area of the defect region (dorsal skin): unit not given here; settings: for area of the defect region (dorsal skin) / Healing rate (dorsal skin defect): individual mice; for Healing rate (dorsal skin defect): FIG. 18
Procedure: Fifteen 8-month-old male Balb/c mice were randomly divided into three groups: PBS group, control group and 114 group, with five mice in each group.
Before the establishment of the defect model, the mice were anaesthetized by injection of 4% chloral hydrate at 0.2 ml/20 g, and the skin was prepared. A circular full-thickness skin defect with a diameter of 6 mm on the back of the mice was created using a skin punch. On the day of the defect creation, the third day, the seventh day, the tenth day, the fourteenth day, the seventeenth day, and the twenty-first day after the defect creation, an equal amount of 100 μl of PBS, 10 μl/ml control peptide, and 10 μl/ml 114 peptide was separately injected at four equidistant sites at 2 mm from the edge of the defect.
The defect region was photographed before each injection, and the area of the defect region was calculated by using Image-Pro plus software. The healing rate was calculated as: healing rate=(area of the defect region on day 0-area of the defect region on day 14/21)/area of the defect region on day 0.

[4] = tested on: telomerase reverse transcriptase; assay: ELISA assay of telomerase reverse transcriptase in SCAPs; format: cell-based, human; settings: SCAPs treated with polypeptide, FIG. 8B
Procedure: as §1

[5] = tested on: stem cells from apical papilla; assay: ALP activity of SCAPs after odontogenic induction; format: cell-based, human; settings: SCAPs treated with polypeptide, 3 days of odontogenic induction, FIG. 8E
Procedure: • (1) Osteogenic culture medium was purchased from Invitrogen, USA. • (2) Quantification of alkaline phosphatase (ALP) activity • 1) After 3 days of osteogenic induction, the culture medium was discarded, and the cells were washed with PBS twice. • 2) The cells were added with 500 μL of lysis buffer, and incubated at 37° C. for 15 minutes. • 3) The cells were scraped, transferred into a 1.5 mL EP tube, and centrifuged at 14000 rpm at 4° C. for 10 minutes. The supernatant was transferred into a new EP tube to measure the protein concentration, and the procedure was the same as that in Western blot. • 4) The capsule from the alkaline phosphatase kit (Stock substrate Sol.) was dissolved with 5 mL of distilled water under vigorous shaking, and mixed well. • 5) 50 μL of ALP buffer was added to 50 μL of Stock substrate Sol to obtain a mixture. 100 μL of the mixture was added to each well in a 96-well plate, then added with 10 μL of sample, and mixed well. A blank well without sample added was set for zero adjustment. • 6) The plate was incubated at 37° C. for 15 minutes, and the OD value was measured at 405 nm.
Result of ALP activity was calculated according to Y/incubation time/protein concentration. • (3) Alizarin red staining • 1) After two weeks of osteogenic induction, the culture medium was discarded. The cells were washed three times with PBS pre-cooled at 4° C., and fixed with 70% ethanol at 4° C. for 1 hour. • 2) The cells were washed 2 times with double distilled water, and stained with 40 mM alizarin red solution (pH 4.2) at room temperature for 10 minutes. The staining was observed by naked eyes. • 3) The cells were washed 3 times with double-distilled water. • (4) Determination of Ca^2+ concentration

Row | Substance | bone density (BMD) of femoral bone trabeculae [1] | expression of telomerase reverse transcriptase (ELISA) [2] | expression of telomerase reverse transcriptase (ELISA) ([2]; listed as 114 peptide) | area of the defect region (dorsal skin) ([3]; Day 0) | area of the defect region (dorsal skin) ([3]; Day 10) | Healing rate (dorsal skin defect) ([3]; Day 10) | area of the defect region (dorsal skin) ([3]; Day 14) | Healing rate (dorsal skin defect) ([3]; Day 14) | healing of defected dorsal skin (observation) ([3]; days 0 and 14, compared to PBS and control peptide groups, FIG. 17) | expression of telomerase reverse transcriptase (ELISA) [4] | expression of telomerase reverse transcriptase (ELISA) ([4]; listed as 114 peptide) | ALP activity [5] | ALP activity ([5]; listed as 114 peptide) | ALP activity ([5]; listed as 102peptide)
1 | FITC-(Acp)-ADLTISHCAADVVRAYGRKKRRQRRR [peptide 114] | significant up-regulation and 0.1440 and 0.1242 and 0.1416 and 0.1071 and 0.1137 | promote the expression | 0.03888 | 6226 and 6554 and 6917 and 5532 and 4700 | 1396 and 3701 and 2313 and 983 and 1816 | 0.7758 and 0.4353 and 0.6656 and 0.8223 and 0.6136 | 681 (2×) and 722 and 486 and 715 | 0.8906 and 0.8898 and 0.9015 and 0.9121 and 0.8479 | significant healing | promoted the expression | 0.05168 | promoted | 0.7238 | 
2 | FITC-(Acp)-KEKSRRVLGNLDLQSYGRKKRRQRRR [peptide 102] |  | 0.02236 |  |  |  |  |  |  |  | 0.03331 |  | promoted |  | 0.3961
